Source: patent US10087156B2, “Methods and compositions related to retinoid receptor-selective pathway” (Sanford Burnham Prebys Medical Discovery Institute, priority 2010, dated 2018)

Assays:
HepG2 liver cancer cells = test: PARP cleavage and caspase-8 activation with TNFα by immunoblotting; assay type: cell-based; settings: HepG2 cells, SR11237 1 μM, 1 hr pretreatment
Description: ZR-75-1 cells were treated with TNFα and/or Sulindac (75 μM) or K-80003 (50 μM) for 6 hr and analyzed by immunoblotting.
HepG2 cells cultured in medium with 1% FBS were treated with SR11237 (1 μM) for 1 hr, then TNFα (10 ng/ml) and/or Sulindac (75 μM) for 4 hr, and analyzed by immunoblotting. HepG2 cells transfected with control or RXRα siRNA were treated with TNFα and/or Sulindac and analyzed by immunoblotting.

COX = settings: Haanen, 2001; cited from earlier work

Compound: CC1(C)CCC(C)(C)c2cc(C3(c4ccc(C(=O)O)cc4)OCCO3)ccc21 [SR11237]
- suppression of the apoptotic effect of Sulindac/TNFα combination (HepG2 liver cancer cells): partially suppressed

Compound: CC1=C(CC(=O)O)c2cc(F)ccc2/C1=C\c1ccc(S(C)(=O)=O)cc1 [sulindac sulfone]
- COX-inhibiting activity (COX): no COX-inhibiting activity

Compound: CC1=C(CC(=O)O)c2cc(F)ccc2/C1=C/c1ccc([S+](C)[O-])cc1 (stereo not drawn) [sulindac sulfoxide]
- COX-inhibiting activity (COX): no COX-inhibiting activity
